# What was measured:
# [1] = tested on: E. coli helicase I, helicase II (uvrD), and rep proteins; conditions: George et al., cited from earlier work; for Ki: read-out: Ki for ATPase and helicase activities
# helicase = conditions: other studies (refs 46-48); cited from earlier work
# recBCD enzyme [2] = test: Dye displacement fluorometric helicase assay (DNA unwinding followed by dye fluorescence); format: biochemical, E. coli; conditions: for Apparent rate of unwinding at which the dye titration levels off: 0.5 nM total recBCD, 2 uM SSB, plateau at ~150 nM for H33258 and TO and 375 nM for DAPI; for Apparent rate of unwinding at which the dye titration levels off / Vmax, observed rate of unwinding at saturating enzyme: 20° C.; for Increase of Vmax in absence of SSB protein relative to its presence: SSB protein omitted vs present; for Vmax, observed rate of unwinding: SSB protein omitted; for Vmax, observed rate of unwinding / Vmax, observed rate of unwinding at saturating enzyme: 250 nM DAPI, 100 nM H33258, 300 nM TO; for Vmax, observed rate of unwinding at saturating enzyme / Apparent energy of activation (Ea) of unwinding: with SSB protein; for Vmax, observed rate of unwinding at saturating enzyme: SSB assay gives 250±25; for Apparent energy of activation (Ea) of unwinding: Arrhenius plots from 20°, 25°, 32°, 37° C., SSB assay 9.7
# Experimental: (§1) Fluorometric helicase assay: The standard reaction buffer consisted of 25 mM Tris-acetate (pH 7.5), 1 mM Mg(OAc)2, and 1 mM DTT. When SSB protein was included, it was present at a 3-fold molar excess, assuming a site size of 15 nucleotides/monomer under stoichiometric conditions. This corresponds to a protein concentration which is 20% of the DNA (nucleotide) concentration. The DNA substrate was BamHI-digested pBR322 DNA, at a concentration of 10 uM nucleotide (2.1 nM ends).
# (§2) The reaction (350 ul total volume) contained standard buffer, linear pBR322 DNA, and the indicated concentration of recBCD enzyme. […] The fluorescence signal due to these components was zeroed out. The fluorophore (either SSB protein or dye) was then added, and the reaction was allowed to equilibrate to the indicated temperature. Unwinding was initiated by the addition of ATP to 3 mM final concentration. […] For SSB protein fluorescence measurements, the value for 100% unwinding was calculated as described previously (28, 41). For dye fluorescence experiments, the value for complete unwinding was obtained by subtracting the fluorescence in the presence of an equimolar amount of ssDNA (i.e., heat-denatured pBR322) (FssDNA) from the fluorescence at the start of the reaction (FdsDNA). The difference in these values (FdsDNA -FssDNA) was taken to be the maximum fluorescence change possible if all of the DNA molecules were fully unwound (Fexp). The observed fluorescence change (Fobs) was divided by this differ ence to obtain the extent of unwinding. Initial rates were then calculated as described previously (28).
# (§3) Fluorescence measurements were carried out on a Shimadzu RF5000U spectrofluorophotometer. When the intrinsic fluorescence of SSB protein was measured, the excitation and emission wavelengths were set at 290 and 340 nm, respectively. The excitation and emission wavelengths for the various dyes were determined experimentally in the presence of dsDNA. For AO, these values were 487 and 510 nm; for DAPI, 345 and 467 nm; for EB, 546 and 590 nm; for EHD, 552 and 596 nm; for H33258, 344 and 487 nm; and for TO, 504 and 528 nm. When SSB protein fluorescence was monitored, the band widths were 1.5 and 10 nm for the excitation and emission slits, respectively; for all of the dye fluorescence experiments, these values were 5 and 10 nm, respectively.
# To determine whether the presence of dyes affected the observed rate of unwinding, the reaction (including SSB protein) was performed at several concentrations of DAPI, H33258, and TO. The reactions were performed at 20° C. in standard buffer with 10 uM nucleotide (2.1 nM ends) linear pBR322 DNA, 2 uM SSB protein, 0.5 nM total (0.17 nM functional) recBCD enzyme, and the indicated concentration of dye. Unwinding was initiated by adding ATP to a final concentration of 3 mM. […] For each dye (DAPI (.circle-solid.), H33258 (o), or TO (.tangle-solidup.), the initial rate of unwinding was determined as described in the Experimental Procedures and is plotted in panel B as a function of dye concentration. Due to the lag behavior illustrated in panel A, the data at concentrations ≤100 nM are considered unreliable, as indicated by shading this portion of the graph.
# In FIG. 4A, raw data from an experiment in which recBCD enzyme concentration was varied at a given concentration of TO are shown; SSB protein was included to allow comparison to previous results. From results such as these, using either DAPI, H33258, or TO, the data in FIG. 4B were generated. Unwinding was performed as in FIG. 3, except that the concentration of recBCD enzyme was varied, and a constant concentration of fluorophore (250 nM for DAPI; 100 nM for H33258; and 300 nM for TO) was used. In panel A, a portion of the raw data obtained with TO are shown. The observed rates of unwinding derived from such experiments are shown in panel B. DAPI, .circle-solid.; H33258, o; TO, .tangle-solidup.. […]
# recBCD enzyme [3] = biological target: T1, recBCD enzyme (Escherichia coli, UniProt P04993+P07648+P08394); test: SSB protein fluorescence assay of DNA unwinding in presence of fluorescent dyes; format: biochemical, E. coli; conditions: for Rate of DNA unwinding: 20° C., 2 uM SSB protein, 0.5 nM total recBCD enzyme, none = 40.7 ± 4.1
# T1 construct: made in house
# Experimental: as §1, §2, §3
# The unwinding reaction was performed at 20° C. in buffer containing 25 mM Tris-acetate (pH 7.5), 1 mM Mg(OAc)2, 3 mM ATP, 1 mM DTT, 10 uM nucleotide BamHI-digested pBR322 DNA, 2 uM SSB protein, 0.5 nM total (0.17 nM functional) recBCD enzyme, and the indicated concentrations of dye. SSB protein fluorescence was monitored.
# T1 sequence (P07648 whole entry): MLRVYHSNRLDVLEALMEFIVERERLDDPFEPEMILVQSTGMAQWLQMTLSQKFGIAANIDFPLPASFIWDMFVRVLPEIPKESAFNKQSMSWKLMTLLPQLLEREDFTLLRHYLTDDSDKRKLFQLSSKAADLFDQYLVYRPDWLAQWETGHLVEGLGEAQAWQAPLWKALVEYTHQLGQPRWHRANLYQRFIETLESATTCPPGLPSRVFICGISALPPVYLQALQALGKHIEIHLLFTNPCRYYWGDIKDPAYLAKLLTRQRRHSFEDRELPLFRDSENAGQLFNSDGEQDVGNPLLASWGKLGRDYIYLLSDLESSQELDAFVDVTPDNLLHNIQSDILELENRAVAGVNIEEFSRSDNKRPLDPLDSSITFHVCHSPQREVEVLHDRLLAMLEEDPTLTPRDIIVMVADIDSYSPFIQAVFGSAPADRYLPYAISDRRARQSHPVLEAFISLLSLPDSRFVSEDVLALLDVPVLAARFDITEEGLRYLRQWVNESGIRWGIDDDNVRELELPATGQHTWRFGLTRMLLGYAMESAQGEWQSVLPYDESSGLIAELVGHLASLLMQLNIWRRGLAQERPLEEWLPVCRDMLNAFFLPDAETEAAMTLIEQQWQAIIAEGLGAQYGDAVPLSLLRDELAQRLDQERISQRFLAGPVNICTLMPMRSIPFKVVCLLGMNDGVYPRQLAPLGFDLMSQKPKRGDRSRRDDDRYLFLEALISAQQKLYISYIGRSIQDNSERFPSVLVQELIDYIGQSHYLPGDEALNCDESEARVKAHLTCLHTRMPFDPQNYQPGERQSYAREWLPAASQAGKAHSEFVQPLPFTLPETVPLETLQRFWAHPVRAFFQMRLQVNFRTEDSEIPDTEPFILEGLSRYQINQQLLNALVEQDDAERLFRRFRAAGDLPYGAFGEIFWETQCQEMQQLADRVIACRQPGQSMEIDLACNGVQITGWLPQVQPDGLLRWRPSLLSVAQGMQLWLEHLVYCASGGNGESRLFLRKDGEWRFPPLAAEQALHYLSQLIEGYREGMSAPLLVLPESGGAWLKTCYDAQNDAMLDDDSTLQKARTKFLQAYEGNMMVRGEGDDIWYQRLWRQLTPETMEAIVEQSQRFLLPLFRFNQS
# T1 sequence (P04993 whole entry): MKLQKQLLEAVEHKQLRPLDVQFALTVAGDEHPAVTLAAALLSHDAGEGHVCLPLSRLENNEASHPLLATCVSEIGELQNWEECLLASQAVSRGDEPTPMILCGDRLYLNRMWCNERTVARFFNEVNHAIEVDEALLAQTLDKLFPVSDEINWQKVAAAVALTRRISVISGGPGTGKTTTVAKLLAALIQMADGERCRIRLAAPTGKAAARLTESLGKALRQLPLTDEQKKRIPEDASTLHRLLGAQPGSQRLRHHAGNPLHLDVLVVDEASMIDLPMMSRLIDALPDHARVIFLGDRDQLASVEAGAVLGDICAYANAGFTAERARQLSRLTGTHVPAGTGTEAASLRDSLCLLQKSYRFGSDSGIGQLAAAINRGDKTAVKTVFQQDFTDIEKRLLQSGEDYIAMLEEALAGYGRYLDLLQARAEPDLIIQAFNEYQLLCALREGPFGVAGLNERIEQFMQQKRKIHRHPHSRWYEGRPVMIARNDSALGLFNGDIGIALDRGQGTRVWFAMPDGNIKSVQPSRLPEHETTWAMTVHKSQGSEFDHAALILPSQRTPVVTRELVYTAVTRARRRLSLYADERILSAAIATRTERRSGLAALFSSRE
# T1 sequence (P08394 whole entry): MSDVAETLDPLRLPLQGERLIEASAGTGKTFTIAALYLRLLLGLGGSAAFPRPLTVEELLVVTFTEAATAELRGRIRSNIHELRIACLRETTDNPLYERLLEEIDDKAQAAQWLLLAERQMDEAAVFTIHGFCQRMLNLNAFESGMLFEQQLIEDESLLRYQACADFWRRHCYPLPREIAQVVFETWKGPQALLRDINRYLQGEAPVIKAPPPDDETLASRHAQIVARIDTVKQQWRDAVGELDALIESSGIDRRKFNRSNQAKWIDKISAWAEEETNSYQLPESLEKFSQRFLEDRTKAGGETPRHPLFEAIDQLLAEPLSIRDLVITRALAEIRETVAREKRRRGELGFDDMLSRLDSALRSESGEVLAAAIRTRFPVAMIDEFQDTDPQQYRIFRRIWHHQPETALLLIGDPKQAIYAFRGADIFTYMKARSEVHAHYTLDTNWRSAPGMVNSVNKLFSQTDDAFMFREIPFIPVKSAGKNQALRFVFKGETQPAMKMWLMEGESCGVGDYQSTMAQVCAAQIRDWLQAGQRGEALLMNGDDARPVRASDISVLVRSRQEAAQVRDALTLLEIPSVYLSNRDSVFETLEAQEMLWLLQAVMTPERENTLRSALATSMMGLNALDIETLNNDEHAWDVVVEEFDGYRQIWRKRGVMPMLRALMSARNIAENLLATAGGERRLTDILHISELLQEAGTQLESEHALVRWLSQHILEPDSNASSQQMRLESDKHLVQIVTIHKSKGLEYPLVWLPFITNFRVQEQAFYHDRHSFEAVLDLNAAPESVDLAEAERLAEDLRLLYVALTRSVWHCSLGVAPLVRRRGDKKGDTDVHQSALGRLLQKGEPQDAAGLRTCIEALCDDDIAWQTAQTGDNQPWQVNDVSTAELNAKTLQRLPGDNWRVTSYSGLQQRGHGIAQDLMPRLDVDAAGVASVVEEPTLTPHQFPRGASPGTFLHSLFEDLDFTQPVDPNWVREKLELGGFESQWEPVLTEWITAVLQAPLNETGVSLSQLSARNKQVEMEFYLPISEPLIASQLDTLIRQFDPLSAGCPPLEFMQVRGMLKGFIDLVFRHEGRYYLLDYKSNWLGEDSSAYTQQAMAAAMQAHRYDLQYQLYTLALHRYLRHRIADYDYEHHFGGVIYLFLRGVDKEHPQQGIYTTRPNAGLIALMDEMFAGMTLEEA
SMILES,Ki [1] [µM],Apparent rate of unwinding at which the dye titration levels off (recBCD enzyme [2]),Increase of Vmax in absence of SSB protein relative to its presence (recBCD enzyme [2]),"Vmax, observed rate of unwinding (recBCD enzyme [2]) [nM bp/s]","Vmax, observed rate of unwinding at saturating enzyme (recBCD enzyme [2]) [nM bp/s]",Apparent energy of activation (Ea) of unwinding (recBCD enzyme [2]) [kJ/mol],Rate of DNA unwinding (recBCD enzyme [3]; 100 nM dye) [nm bp/s],Rate of DNA unwinding (recBCD enzyme [3]; 250 nM dye) [nm bp/s],further results
N=C(N)c1ccc(-c2cc3ccc(C(=N)N)cc3[nH]2)cc1,1 to 10,–,–,–,–,–,–,–,–
"CN(C)c1ccc2cc3ccc(N(C)C)cc3nc2c1 [AO, acridine orange]",1 to 10,–,–,–,–,–,–,–,–
COc1c(O)c2c(c3cc(C(=O)N4CCc5c4c(O)c(OC)c4[nH]c(C(=O)N6CC7CC78C6=CC(=O)c6[nH]cc(C)c68)cc54)[nH]c13)CCN2C(N)=O (stereo not shown) [CC-1065],–,–,–,–,–,–,–,–,Inhibition of helicase activity (helicase): inhibition of helicase activity
"CN1CCN(c2ccc3[nH]c(-c4ccc5[nH]c(-c6ccc(O)cc6)nc5c4)nc3c2)CC1 [H33258, Hoechst 33258]",1 to 10,20-25 nM bp/s,25-50%,272±30,221±25,41.4,36.1 ± 4.5,35.5 ± 1.9,"Rate of unwinding at optimal dye concentration compared with SSB protein fluorescence assay (recBCD enzyme [2]; 400 nm DAPI, 300 nm H33258): within experimental error, equal to those obtained using the SSB protein fluorescence assay; Effect on observed rate of unwinding (recBCD enzyme [3]; dye at 100 or 250 nM, low enzyme concentration): does not affect the observed rate of unwinding"
"CN1C(=Cc2cc[n+](C)c3ccccc23)Sc2ccccc21 [TO, thiazole orange]",–,20-25 nM bp/s,25-50%,330±25,211±15,40.6,35.6 ± 1.3,31.9 ± 0.7,inhibition at 0.25 µM (recBCD enzyme [3]; read-out: Decrease of observed rate of unwinding): < 20%
O=C1c2c(O)ccc(O)c2C(=O)c2c(NCCNCCO)ccc(NCCNCCO)c21 [mitoxantrone],–,–,–,–,–,–,–,–,Inhibition of helicases ([1]; dependent upon ligand and enzyme): potent but differential inhibition

# From patent publication US5747247A, “Spectroscopic helicase assay” (The Regents of The University of California, priority 1994, dated 1998)
